{
  "source": "paper PMC2656767",
  "about": "(The Journal of organic chemistry, 2009)",
  "key": {"[1]": {"test_system": "wild type (ATCC 90027) C. albicans", "assay": "Modified disk diffusion assay, wild type C. albicans", "type": "cell-based, Candida albicans", "settings": "wild type strain, loads of 1-5 μg/disk"}, "[2]": {"test_system": "amphotericin B resistant C. albicans (ATCC 200955)", "assay": "Modified disk diffusion assay, amphotericin B resistant C. albicans", "type": "cell-based", "settings": "amphotericin B-resistant strain, loads of 1-5 μg/disk"}},
  "data": [
    {"substance": "Theopapuamide A [compound 7]", "values": [
      {"measurement": "antifungal activity (in words)", "setting": "[1]", "value": "activity"},
      {"measurement": "antifungal activity (in words)", "setting": "[2]", "value": "activity"}
    ]}
  ]
}
